Earlier results as cited in patent US20160355464A1, “FUMARATE COMPOUNDS, PHARMACEUTICAL COMPOSITIONS THEREOF, AND METHODS OF USE” (priority 2015, published 2016).

- aqueous solubility: poor aqueous solubility
SMILES: COC(=O)/C=C/C(=O)OC [DMF, dimethylfumarate]
